Data: the supplement of paper PMC10307832

Assays:
Assay in all cases: relative viability (nuclei count vs DMSO), 5 days (fraction); higher = more cells survive
KIN001-266 + Crizotinib = compound: CCN1CCC(CC1)N2C=C(N=N2)CNC3=CC4=C(C(=CN=C4C(=C3)Cl)C#N)NC5=CC(=C(C=C5)F)Cl [KIN001-266] + C[C@@H](Oc1cc(-c2cnn(C3CCNCC3)c2)cnc1N)c1c(Cl)ccc(F)c1Cl [Crizotinib] (partner 1 µM)
Summary of the method: (§1)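 Dosing by pin tool came one day after lung cancer cell lines were seeded in 1536-well plates, using either one drug or a fixed anchor-drug dose plus five library-drug doses (not always all listed) in √10 steps. After 5 days, nuclei were counted on 4× images. Relative viability is treated-well nuclei count divided by vehicle-well nuclei count, and values are medians of duplicate plates.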

KIN001-266 + Phenformin = compound: CCN1CCC(CC1)N2C=C(N=N2)CNC3=CC4=C(C(=CN=C4C(=C3)Cl)C#N)NC5=CC(=C(C=C5)F)Cl [KIN001-266] + N=C(N)NC(=N)NCCc1ccccc1 [Phenformin] (partner 250 µM)
Summary of the method: as §1

KIN001-266 + Navitoclax = compound: CCN1CCC(CC1)N2C=C(N=N2)CNC3=CC4=C(C(=CN=C4C(=C3)Cl)C#N)NC5=CC(=C(C=C5)F)Cl [KIN001-266] + CC1(C)CCC(c2ccc(Cl)cc2)=C(CN2CCN(c3ccc(C(=O)NS(=O)(=O)c4ccc(N[C@H](CCN5CCOCC5)CSc5ccccc5)c(S(=O)(=O)C(F)(F)F)c4)cc3)CC2)C1 [Navitoclax] (partner 0.5 µM)
Summary of the method: as §1

KIN001-266 + Decitabine = compound: CCN1CCC(CC1)N2C=C(N=N2)CNC3=CC4=C(C(=CN=C4C(=C3)Cl)C#N)NC5=CC(=C(C=C5)F)Cl [KIN001-266] + Nc1ncn([C@H]2C[C@H](O)[C@@H](CO)O2)c(=O)n1 [Decitabine] (partner 2 µM)
Summary of the method: as §1

| Cell Line | relative viability (KIN001-266 + Crizotinib; first compound 0.08 µM) | relative viability (KIN001-266 + Crizotinib; first compound 0.253 µM) | relative viability (KIN001-266 + Crizotinib; first compound 0.8 µM) | relative viability (KIN001-266 + Crizotinib; first compound 2.53 µM) | relative viability (KIN001-266 + Crizotinib; first compound 8 µM) | relative viability (KIN001-266 + Phenformin; first compound 0.08 µM) | relative viability (KIN001-266 + Phenformin; first compound 0.253 µM) | relative viability (KIN001-266 + Phenformin; first compound 0.8 µM) | relative viability (KIN001-266 + Phenformin; first compound 2.53 µM) | relative viability (KIN001-266 + Phenformin; first compound 8 µM) | relative viability (KIN001-266 + Navitoclax; first compound 0.08 µM) | relative viability (KIN001-266 + Navitoclax; first compound 0.253 µM) | relative viability (KIN001-266 + Navitoclax; first compound 0.8 µM) | relative viability (KIN001-266 + Navitoclax; first compound 2.53 µM) | relative viability (KIN001-266 + Navitoclax; first compound 8 µM) | relative viability (KIN001-266 + Decitabine; first compound 0.08 µM) | relative viability (KIN001-266 + Decitabine; first compound 0.253 µM) | relative viability (KIN001-266 + Decitabine; first compound 0.8 µM) | relative viability (KIN001-266 + Decitabine; first compound 2.53 µM) | relative viability (KIN001-266 + Decitabine; first compound 8 µM) |
| --- | --- | --- | --- | --- | --- | --- | --- | --- | --- | --- | --- | --- | --- | --- | --- | --- | --- | --- | --- | --- |
| NCI-H2023 | 0.732 | 0.603 | 0.576 | 0.648 | 0.459 | 0.378 | 0.391 | 0.401 | 0.304 | 0.28 | 0.956 | 1 | 1.08 | 0.93 | 1.05 | 0.21 | 0.217 | 0.217 | 0.216 | 0.289 |
| NCI-H2085 | 0.867 | 1.05 | 0.875 | 0.794 | 0.615 | 0.855 | 0.741 | 0.663 | 0.669 | 0.632 | 1.15 | 1.25 | 1.08 | 1.13 | 0.906 | 0.567 | 0.57 | 0.517 | 0.474 | 0.499 |
| NCI-H2087 | 0.699 | 0.81 | 0.604 | 0.786 | 0.532 | 0.439 | 0.467 | 0.38 | 0.352 | 0.234 | 1.17 | 0.93 | 0.916 | 0.97 | 0.56 | 0.29 | 0.288 | 0.257 | 0.299 | 0.258 |
| NCI-H2126 | 1.04 | 1.02 | 0.965 | 1.05 | 1.08 | 0.535 | 0.519 | 0.546 | 0.555 | 0.5 | 0.844 | 0.86 | 0.863 | 0.813 | 0.855 | 0.625 | 0.56 | 0.647 | 0.572 | 0.552 |
| NCI-H2170 | 1.17 | 1.19 | 1.22 | 1.11 | 1.18 | 0.38 | 0.383 | 0.377 | 0.358 | 0.334 | 0.598 | 0.549 | 0.623 | 0.647 | 0.605 | 0.47 | 0.437 | 0.457 | 0.436 | 0.414 |
| NCI-H2347 | 0.675 | 0.802 | 0.673 | 0.682 | 0.625 | 0.405 | 0.428 | 0.435 | 0.519 | 0.24 | 0.869 | 0.747 | 0.787 | 0.834 | 0.453 | 0.64 | 0.643 | 0.56 | 0.622 | 0.458 |
| NCI-H2405 | 0.854 | 0.89 | 0.811 | 0.852 | 0.565 | 0.401 | 0.412 | 0.378 | 0.379 | 0.155 | 1.02 | 1 | 0.901 | 0.881 | 0.4 | 0.772 | 0.78 | 0.783 | 0.694 | 0.627 |
| NCI-H3122 | 0.329 | 0.239 | 0.267 | 0.256 | 0.221 | 0.349 | 0.367 | 0.325 | 0.274 | 0.307 | 0.968 | 1.09 | 1.01 | 0.998 | 0.769 | 0.435 | 0.472 | 0.426 | 0.442 | 0.326 |
| PC-3 [JPC-3] | 0.986 | 0.911 | 0.872 | 0.952 | 0.896 | 0.466 | 0.496 | 0.48 | 0.475 | 0.477 | 0.813 | 0.869 | 0.759 | 0.738 | 0.803 | 0.786 | 0.87 | 0.823 | 0.824 | 0.737 |
| PC-14 | 0.92 | 0.972 | 0.817 | 0.852 | 0.571 | 0.567 | 0.762 | 0.356 | 0.543 | 0.324 | 0.973 | 1.03 | 1.07 | 0.959 | 0.599 | 0.214 | 0.253 | 0.2 | 0.265 | 0.229 |
| RERF-LC-KJ | 0.722 | 0.899 | 0.803 | 0.777 | 0.813 | 0.436 | 0.354 | 0.415 | 0.355 | 0.345 | 0.989 | 0.81 | 0.937 | 0.849 | 0.651 | 0.744 | 0.777 | 0.767 | 0.64 | 0.497 |
| SK-LU-1 | 1.13 | 0.997 | 0.963 | 0.763 | 0.557 | 0.561 | 0.47 | 0.526 | 0.439 | 0.394 | 0.677 | 0.465 | 1.11 | 0.839 | 0.512 | 0.718 | 0.623 | 0.615 | 0.552 | 0.478 |
| SK-MES-1 | 1.02 | 1.09 | 0.948 | 0.923 | 0.888 | 0.648 | 0.695 | 0.693 | 0.519 | 0.459 | 1.25 | 1.17 | 1.11 | 1.04 | 0.858 | 0.383 | 0.37 | 0.386 | 0.391 | 0.433 |
| SW 1573 | 0.695 | 0.846 | 0.81 | 0.663 | 0.68 | 0.347 | 0.425 | 0.334 | 0.262 | 0.165 | 1.05 | 1.05 | 1.03 | 0.91 | 0.643 | 0.504 | 0.447 | 0.699 | 0.427 | 0.429 |
| UMC-11 | 0.577 | 0.538 | 0.504 | 0.637 | 0.335 | 0.336 | 0.381 | 0.333 | 0.316 | 0.251 | 0.3 | 0.319 | 0.38 | 0.355 | 0.278 | 0.646 | 0.576 | 0.698 | 0.66 | 0.603 |
